What follows are molecules tested against b-Raf(V600E) (Homo sapiens (Human), UniProt P15056, V600E) (assay: Raf/Mek Amplified Luminescence Proximity Homogeneous Assay (Alpha Screen)). Settings: b-Raf(V600E) approximately 4 pM; biotinylated Mek, kinase dead approximately 10 nM; ATP 10 μM; pre-incubation 60 minutes; reaction 3 hours at room temperature; read-out: mut-B-RAF IC50.
Type: biochemical
In short: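 Raf pre-incubated with compound and kinase-dead biotinylated Mek (~10 nM) for 60 min, room temperature, in 50 mM Tris pH 7.5, 15 mM MgCl2, 0.01% BSA, 1 mM DTT; ATP-started reaction 1 or 3 h, EDTA stop. Phospho-MEK detected by anti-p-MEK1/2 AlphaScreen; IC50 by non-linear regression.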

Chain of b-Raf(V600E) (P15056 whole entry V600E): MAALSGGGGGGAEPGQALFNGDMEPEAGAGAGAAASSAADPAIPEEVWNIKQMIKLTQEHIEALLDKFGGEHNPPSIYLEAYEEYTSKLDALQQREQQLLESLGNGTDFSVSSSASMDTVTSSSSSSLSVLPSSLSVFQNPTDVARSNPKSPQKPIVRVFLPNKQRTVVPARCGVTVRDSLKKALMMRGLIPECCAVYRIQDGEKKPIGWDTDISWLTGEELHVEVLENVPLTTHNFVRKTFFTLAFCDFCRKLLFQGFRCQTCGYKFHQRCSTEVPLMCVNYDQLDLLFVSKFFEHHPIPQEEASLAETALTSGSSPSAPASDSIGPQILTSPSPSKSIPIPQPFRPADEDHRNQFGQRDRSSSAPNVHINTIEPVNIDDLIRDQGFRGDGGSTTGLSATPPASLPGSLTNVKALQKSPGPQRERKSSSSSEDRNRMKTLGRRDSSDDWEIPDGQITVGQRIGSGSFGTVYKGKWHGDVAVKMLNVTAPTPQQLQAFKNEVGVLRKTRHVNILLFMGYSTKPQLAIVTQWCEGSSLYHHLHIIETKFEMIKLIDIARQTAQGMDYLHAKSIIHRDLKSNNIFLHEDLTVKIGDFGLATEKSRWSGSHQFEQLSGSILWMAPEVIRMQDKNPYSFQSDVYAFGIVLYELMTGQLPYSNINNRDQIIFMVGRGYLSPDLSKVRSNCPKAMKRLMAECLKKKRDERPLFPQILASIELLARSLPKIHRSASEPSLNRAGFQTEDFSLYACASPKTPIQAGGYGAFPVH

Compound | IC50
CCS(=O)(=O)Nc1cc(F)cc(-c2nc(C3CC3)[nH]c2-c2ccnc(NC[C@H](C)NC(=O)OC)n2)c1Cl [Example 1AD, (S)-Methyl 1-(4-(4-(2-chloro-3-(ethylsulfonamido)-5-fluorophenyl)-2-cyclopropyl-1H-imidazol-5-yl)pyrimidin-2-ylamino)propan-2-ylcarbamate] | 0.43 nM
COC(=O)N[C@@H](C)CNc1nccc(-c2[nH]c(C3CC3)nc2-c2cc(Cl)cc(NS(C)(=O)=O)c2F)n1 [Example 1A, (S)-methyl 1-(4-(4-(5-chloro-2-fluoro-3-(methylsulfonamido)phenyl)-2-cyclopropyl-1H-imidazol-5-yl)pyrimidin-2-ylamino)propan-2-ylcarbamate] | 0.2 nM
Nc1nccc(-c2[nH]c(C3CC3)nc2-c2cc(Cl)cc(NS(=O)(=O)c3c(F)cccc3F)c2F)n1 [Example 1BF, N-(3-(5-(2-Aminopyrimidin-4-yl)-2-cyclopropyl-1H-imidazol-4-yl)-5-chloro-2-fluorophenyl)-2,6-difluorobenzenesulfonamide] | 0.1 nM
COC(=O)N[C@@H](C)CNc1nccc(-c2[nH]c(C3CC3)nc2-c2cc(C)cc(NS(C)(=O)=O)c2Cl)n1 [Example 1AB, (S)-Methyl 1-(4-(4-(2-chloro-5-methyl-3-(methylsulfonamido)phenyl)-2-cyclopropyl-1H-imidazol-5-yl)pyrimidin-2-ylamino)propan-2-ylcarbamate] | 1.1 nM
CCCNc1nccc(-c2[nH]c(C3CC3)nc2-c2cc(F)cc(NS(C)(=O)=O)c2Cl)n1 [Example 1AP, N-(2-Chloro-3-(2-cyclopropyl-5-(2-(propylamino)pyrimidin-4-yl)-1H-imidazol-4-yl)-5-fluorophenyl)methanesulfonamide] | 5 nM

Results, then the molecule that gave them:

IC50 | Compound
11.2 nM | COC(=O)N[C@@H](C)CNc1nccc(-c2nc(C(C)(C)C)[nH]c2-c2cc(NS(=O)(=O)C(C)C)cc(OC(F)F)c2)n1 [Example 1P, (S)-Methyl 1-(4-(2-tert-butyl-5-(3-(difluoromethoxy)-5-(1-methylethylsulfonamido)phenyl)-1H-imidazol-4-yl)pyrimidin-2-ylamino)propan-2-ylcarbamate]
0.16 nM | CCCS(=O)(=O)Nc1cccc(-c2nc(C3CC3)[nH]c2-c2ccnc(NC[C@H](C)NC(=O)OC)n2)c1F [Example 4C, (S)-Methyl 1-(4-(2-cyclopropyl-4-(2-fluoro-3-(propylsulfonamido)phenyl)-1H-imidazol-5-yl)pyrimidin-2-ylamino)propan-2-ylcarbamate]
4 nM | CS(=O)(=O)Nc1cc(Cl)cc(-c2nc(C3CC3)[nH]c2-c2ccnc(N)n2)c1F [Example 1BG, N-(3-(5-(2-Aminopyrimidin-4-yl)-2-cyclopropyl-1H-imidazol-4-yl)-5-chloro-2-fluorophenyl)methanesulfonamide]

From patent US8563553B2, “Compounds and compositions as protein kinase inhibitors” (Novartis AG, priority 2009, dated 2013)
